pIC50: −log10 of the molar value.

Sequence of SOS1:KRAS (G12C) interaction (Q07889 564-1049, stated change not applied): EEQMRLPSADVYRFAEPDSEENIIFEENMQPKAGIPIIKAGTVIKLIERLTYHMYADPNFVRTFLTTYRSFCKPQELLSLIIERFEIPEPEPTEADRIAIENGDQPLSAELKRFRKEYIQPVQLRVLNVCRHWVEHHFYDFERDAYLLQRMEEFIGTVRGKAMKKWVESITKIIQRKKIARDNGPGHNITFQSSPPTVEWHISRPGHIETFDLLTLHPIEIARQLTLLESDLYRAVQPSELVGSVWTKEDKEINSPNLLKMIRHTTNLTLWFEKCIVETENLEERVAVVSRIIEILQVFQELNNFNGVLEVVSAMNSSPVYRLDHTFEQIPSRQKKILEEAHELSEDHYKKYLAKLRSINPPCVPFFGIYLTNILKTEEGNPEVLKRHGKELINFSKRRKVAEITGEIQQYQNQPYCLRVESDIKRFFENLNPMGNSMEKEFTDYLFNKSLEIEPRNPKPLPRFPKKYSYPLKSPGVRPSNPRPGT

The target of the assay is SOS1:KRAS (G12C) interaction (Homo sapiens (Human), UniProt Q07889). The assay is described as follows: SOS1 KRas(G12C) FRET Assay. It counts as binding. To be noted: 0.5 nM His10-SOS1 (res. 564-1049), 2.5 nM GST-KRAS G12C (res. 1-169), 2 hrs at RT. How it is done:
Inhibition of the SOS 1:KRAS interaction was measured using purified GST-tagged KRAS (res. 1-169, G12C, purified based on Hillig, et al., Proc Natl Acad Sci USA (2019); 116(7):2551-2560) and recombinant His10-SOS1 (res. 564-1049; purified based on Hillig, et al.). The final assay was performed at 20 uL with 0.5 nM SOS1 protein and 2.5 nM KRAS protein in a buffer of PBS, 0.1% BSA, 5 mM MgCh, 0.0025% Igepal, 100 mM KF, 5 mM DTT in a white 384 square well OptiPlate (PerkinElmer, Cat. 6007290). A 2x KRAS working solution was prepared in an assay buffer containing 5 nM GST-KRAS G12C and 2 nM anti-GST-Eu(K) (Cisbio, Cat. 61GSTKLA) and pre-incubated for 15 minutes at 25° C. […] The final DMSO concentration is 0.5%. Plates were incubated at RT for 2 hrs before the FRET signal was measured using Envision at emission 665 nm and 615 nm. FRET signal was converted to percentage of protein-protein interaction using the following equation:
• C: signal with compound treatment • P: signal for positive control (DMSO) • N: signal for negative control (no SOS1 added)
IC50 and Hill coefficients were obtained using Graph Pad Prism (Graph Pad software, Inc, USA) with non-linear regression analysis.
Consider `Cc1c([C@@H](C)NC(=O)c2cn(C3CCOCC3)c(=O)cc2NC2[C@@H]3C[C@H]2CN(C)C3)cccc1C(F)(F)F` (single isomer, unassigned) [Example 22], for which the pIC50 (in general, −log10 of the IC50, conventionally taken in molar units) is 7.59.
Compound `Cc1c([C@@H](C)NC(=O)c2cn(C3CCOCC3)c(=O)cc2N[C@H]2[C@@H]3C[C@H]2CN(C)C3)cccc1C(F)(F)F` (single isomer, unassigned) [Example 23] had a pIC50 of 7.33.
Then `Cc1c([C@@H](C)NC(=O)c2cn(C3CCOCC3)c(=O)cc2N[C@@H]2[C@@H]3CC[C@H]2CN(C)C3)cccc1C(F)(F)F` (single isomer, unassigned) [Example 31], with 7.56; and `Cc1c([C@@H](C)NC(=O)c2cn(C3CCOCC3)c(=O)cc2N[C@H]2[C@@H]3CC[C@H]2CN(C)C3)cccc1C(F)(F)F` (single isomer, unassigned) [Example 32], with 7.24; and `Cc1c([C@@H](C)NC(=O)c2cn(C3CCOCC3)c(=O)cc2N[C@H]2CCCN(C)CC2)cccc1C(F)(F)F` (single isomer, unassigned) [Example 33], with 7.74.
For the compound `Cc1c([C@@H](C)NC(=O)c2cn(C3CCOCC3)c(=O)cc2N[C@@H]2CCCN(C)CC2)cccc1C(F)(F)F` (single isomer, unassigned) [Example 34], the pIC50 is 7.64.
In the case of `Cc1c([C@@H](C)NC(=O)c2cn(C3CCOCC3)c(=O)cc2N[C@@H]2C[C@@H]3CC[C@H]2N3C)cccc1C(F)(F)F` (single isomer, unassigned) [Example 37] it was 7.48.
Then `Cc1c([C@@H](C)NC(=O)c2cn(C3CCOCC3)c(=O)cc2N[C@H]2C[C@H]3CC[C@@H]2N3C)cccc1C(F)(F)F` (single isomer, unassigned) [Example 38], with 7.34; and `Cc1c([C@@H](C)NC(=O)c2cn(C3CCOCC3)c(=O)cc2N[C@H]2CCN(C)C3(CC3)C2)cccc1C(F)(F)F` (single isomer, unassigned) [Example 39], with 7.36.
In the case of `Cc1c([C@@H](C)NC(=O)c2cn(C3CCOCC3)c(=O)cc2N[C@@H]2CCN(C)C3(CC3)C2)cccc1C(F)(F)F` (single isomer, unassigned) [Example 40] it was 7.93.
For `C[C@@H](NC(=O)c1cn(C2(C(F)F)CC2)c(=O)cc1N[C@@H]1CCN(C)C[C@@H]1F)c1cccc(C(F)F)c1F` (single isomer, unassigned) [Example 67], the pIC50 is 7.97.
In the case of `C[C@@H](NC(=O)c1cn(C2(C(F)F)CC2)c(=O)cc1N[C@H]1CCN(C)C[C@H]1F)c1cccc(C(F)F)c1F` (single isomer, unassigned) [Example 68] it was 7.84.
For `C[C@@H](NC(=O)c1cn([C@H]2C[C@@H]2C2CC2)c(=O)cc1NC1CCN(C)CC1)c1cccc(C(F)F)c1F` (single isomer, unassigned) [Example 73], the pIC50 is 7.89.
In the case of `COc1ccc([C@@H](C)NC(=O)c2cn(C3(C(F)F)CC3)c(=O)cc2NC2CCN(C)CC2)c(F)c1C(F)(F)F` (single isomer, unassigned) [Example 165] it was 5.10.
Regarding `COc1ccc([C@H](C)NC(=O)c2cn(C3(C(F)F)CC3)c(=O)cc2NC2CCN(C)CC2)c(F)c1C(F)(F)F` (single isomer, unassigned) [Example 166], the pIC50 is 6.71.
With `C[C@@H](NC(=O)c1cn(C2(C(F)F)CC2)c(=O)cc1NC1CCN(C)CC1)c1ccc(F)c(C(F)(F)F)c1` (single isomer, unassigned) [Example 167], the pIC50 is under 5.00.
In the case of `C[C@H](NC(=O)c1cn(C2(C(F)F)CC2)c(=O)cc1NC1CCN(C)CC1)c1ccc(F)c(C(F)(F)F)c1` (single isomer, unassigned) [Example 168] it was 6.25; in that of `Cc1cc([C@@H](C)NC(=O)c2cn(C3(C(F)F)CC3)c(=O)cc2NC2CCN(C)CC2)cc(C(F)(F)F)n1` (single isomer, unassigned) [Example 171], 5.90; in that of `Cc1cc([C@H](C)NC(=O)c2cn(C3(C(F)F)CC3)c(=O)cc2NC2CCN(C)CC2)cc(C(F)(F)F)n1` (single isomer, unassigned) [Example 172], under 5.00.
In the case of `C[C@@H](NC(=O)c1cn(C23CC(C2)C3)c(=O)cc1N[C@H]1[C@@H]2CN(C)C[C@@H]21)c1cccc(C#N)c1Cl` (single isomer, unassigned) [Example 177] it was 7.25; in that of `C[C@H](NC(=O)c1cn(C23CC(C2)C3)c(=O)cc1N[C@H]1[C@@H]2CN(C)C[C@@H]21)c1cccc(C#N)c1Cl` (single isomer, unassigned) [Example 178], under 5.00.
On to `C[C@@H](NC(=O)c1cn(C2(C(F)F)CC2)c(=O)cc1N[C@H]1CCCn2cncc21)c1cccc(C(F)F)c1F` (single isomer, unassigned) [Example 183], for which the pIC50 is 8.21.
In the case of `C[C@@H](NC(=O)c1cn(C2(C(F)F)CC2)c(=O)cc1N[C@@H]1CCCn2cncc21)c1cccc(C(F)F)c1F` (single isomer, unassigned) [Example 184] it was 7.25.
In the case of `Cc1c(C#N)cccc1[C@@H](C)NC(=O)c1cn([C@@H]2[C@@H](C)C2(F)F)c(=O)cc1N[C@H]1[C@@H]2CN(C)C[C@@H]21` (single isomer, unassigned) [Example 193] it was 6.82.
Take `Cc1c(C#N)cccc1[C@@H](C)NC(=O)c1cn([C@H]2[C@H](C)C2(F)F)c(=O)cc1N[C@H]1[C@@H]2CN(C)C[C@@H]21` (single isomer, unassigned) [Example 194]: the pIC50 is 7.71.
Then `C[C@@H]1[C@@H](n2cc(C(=O)N[C@H](C)c3cccc(C(C)(F)F)c3F)c(N[C@H]3[C@@H]4CN(C)C[C@@H]43)cc2=O)C1(F)F` (single isomer, unassigned) [Example 195], with 8.26.
Then `C[C@@H](NC(=O)c1cn([C@H]2[C@H](C)C2(F)F)c(=O)cc1N[C@H]1[C@@H]2CN(C)C[C@@H]21)c1cccc(C(C)(F)F)c1F` (single isomer, unassigned) [Example 196], with 7.36.
Then `C[C@@H]1[C@@H](n2cc(C(=O)N[C@H](C)c3cccc(C(F)(F)F)c3F)c(N[C@H]3[C@@H]4CN(C)C[C@@H]43)cc2=O)C1(F)F` (single isomer, unassigned) [Example 197], with 7.50.
The compound `C[C@@H](NC(=O)c1cn([C@H]2[C@H](C)C2(F)F)c(=O)cc1N[C@H]1[C@@H]2CN(C)C[C@@H]21)c1cccc(C(F)(F)F)c1F` (single isomer, unassigned) [Example 198] showed a pIC50 of 8.47.
Regarding `C[C@@H](NC(=O)c1cn([C@@H]2CC2(F)F)c(=O)cc1N[C@H]1[C@@H]2CN(C)C[C@@H]21)c1cccc(C(F)(F)F)c1F` (single isomer, unassigned) [Example 199], the pIC50 was 8.00.
In the case of `C[C@@H](NC(=O)c1cn([C@H]2CC2(F)F)c(=O)cc1N[C@H]1[C@@H]2CN(C)C[C@@H]21)c1cccc(C(F)(F)F)c1F` (single isomer, unassigned) [Example 200] it was 7.78; in that of `C[C@@H](NC(=O)c1cn([C@@H]2CC2(F)F)c(=O)cc1N[C@H]1[C@@H]2CN(C)C[C@@H]21)c1cccc(C(C)(F)F)c1F` (single isomer, unassigned) [Example 201], 7.85; in that of `C[C@@H](NC(=O)c1cn([C@H]2CC2(F)F)c(=O)cc1N[C@H]1[C@@H]2CN(C)C[C@@H]21)c1cccc(C(C)(F)F)c1F` (single isomer, unassigned) [Example 202], 7.71.

Values taken from US20230348424A1, “HETEROCYCLIC COMPOUNDS AND METHODS OF USE” (Schrödinger, Inc., priority 2022, published 2023).
